Laboratory results reported in patent publication US4593090A, “Novel nitrosourea compounds, method for preparing same, and pharmaceutical composition containing same” (Gogo Kimura, priority 1981, dated 1986).

How the values were obtained:
Leukemia L1210 [1] = experiment: Activity against Leukemia L1210, intraperitoneal, increase in life span of mice; format: in vivo, female mice (BDF1 family); settings: for ED (maximum ILS) / ED30: Mus musculus, L1210, ip; for ED (maximum ILS): read-out: O.D. (optimum dosage); for ED30: read-out: ILS30; for Survivors after 60 days / Max. ILS % / Therapeutic ratio TR: ip; for Survivors after 60 days: 6-membered group; for Max. ILS %: 60-day observation, versus control; for Therapeutic ratio TR: O.D./ILS30
How it was run: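 Female BDF1 mice (20 to 23 g, 6 per group) implanted ip with 1×10^5 L1210 cells; test compound given ip or orally once daily for 5 days starting 24 h later. ILS% from mean survival days vs untreated controls over 60 days; T.R. = O.D./ILS30.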

[2] = Acute toxicity (LD50, Behrens-Karber method); format: in vivo, ICR mice; settings: ip, mortality during 30 days; for LD50 at 720 h: mouse, in vivo
Experimental: Test compounds, dissolved or suspended in 0.5% aqueous CMC, were each intraperitoneally administered to ICR mice in a dose of 0.1 ml per 10 g body weight. LD50 (mg/kg) value of each test compound was calculated from the mortality of mice during 30 days by the Behrens-Karber method.

Leukemia L1210 [3] = experiment: Activity against Leukemia L1210, oral, increase in life span of mice; format: in vivo, female mice (BDF1 family); settings: for ED (maximum ILS) / ED30: Mus musculus, L1210; for ED (maximum ILS): read-out: O.D. (optimum dosage); for ED30: read-out: ILS30; for Survivors after 60 days / Max. ILS % / Therapeutic ratio TR: oral; for Survivors after 60 days: 6-membered group; for Max. ILS %: 60-day observation, versus control; for Therapeutic ratio TR: O.D./ILS30
Experimental: Tests were conducted in accordance with the method for measuring antitumor activity of National Cancer Center Tokyo (A, Hoshi et al, Farumashia 9 464 (1973)). Test compounds were each intraperitoneally (referred to as ip) or orally (referred to as op) administered once a day for 5 successive days to a 6-membered group of femal mice (BDF1 family, each weighing 20 to 23 g) 24 hours after 1×10^5 cells of Leukemia L1210 have been implantated into the abdominal cavities of the mice, and the effect was evaluated by comparing the survival days of treated groups with those of an untreated group of mice (control group) in 60-day observation. An increase percentage of life span (ILS%) was calculated from said average survival days compared with those of the control group. Further, therapeutic ratio (O.D./ILD30, referred to as T.R.) of each tested compound was calculated from the daily dosage of the compound necessary to increase said average survival days by 30% as compared with the control group (this dosage is referred to as ILS 30) and the daily dosage giving a maximum increase of life span to mice implantated with L1210 cells, namely an optimum dosage (referred to as O.D.). The results of five successive days intraperitoneal administrations of test compounds were shown in Tables I to III, and those of five successive oral administrations in Table IV.

[4] = ip once a day for 5 successive days, daily dosage giving maximum increase of life span
[5] = ip once a day for 5 successive days, daily dosage increasing average survival days by 30%
[6] = oral once a day for 5 successive days, daily dosage giving maximum increase of life span
[7] = oral once a day for 5 successive days, daily dosage increasing average survival days by 30%

Molecule	ED (maximum ILS) (Leukemia L1210 [1]; [4])	ED30 (Leukemia L1210 [1]; [5])	Survivors after 60 days (Leukemia L1210 [1])	Max. ILS % (Leukemia L1210 [1])	Therapeutic ratio TR (Leukemia L1210 [1])	LD50 at 720 h [2]	ED (maximum ILS) (Leukemia L1210 [3]; [6])	ED30 (Leukemia L1210 [3]; [7])	Survivors after 60 days (Leukemia L1210 [3])	Max. ILS % (Leukemia L1210 [3])	Therapeutic ratio TR (Leukemia L1210 [3])	O.D. (optimum dosage) (Leukemia L1210 [1]; [4])	ILS30 (Leukemia L1210 [1]; [5])	LD50 [2]	O.D. (optimum dosage) (Leukemia L1210 [3]; [6])	ILS30 (Leukemia L1210 [3]; [7])
CC(C)CO[C@H]1O[C@H](CN(CC(C)(C)C)C(=O)N(CCCl)N=O)[C@@H](O)[C@H](O)[C@H]1O [Compound 183, 3-neopentyl-3-(isobutyl α-D-glucopyranose-6-yl)-1-(2-chloroethyl)-1-nitrosourea]	170 mg/kg	3.01 mg/kg	6/6	> 700%	56.4	520 mg/kg	200 mg/kg	13.2 mg/kg	4/6	> 460%	15.2					
3-tert-butyl-3-(1-methoxy-2-methoxyethyl α-D-glucopyranose-6-yl)-1-(2-chloroethyl)-1-nitrosourea [Compound 195]			6/6	> 700%	55.4				5/6	> 620%	23.5	160 mg/kg	2.89 mg/kg	540 mg/kg	200 mg/kg	8.51 mg/kg
CC(C)CN(C[C@@H]1O[C@@H](OC2CCCCC2)[C@H](O)[C@@H]1O)C(=O)N(CCCl)N=O [Compound 171, 3-isobutyl-3-(cyclohexyl α-L-lyxofuranose-5-yl)-1-(2-chloroethyl)-1-nitrosourea]	150 mg/kg	3.3 mg/kg	4/6	> 440%	45.5	450 mg/kg	190 mg/kg	11.7 mg/kg	4/6	> 450%	16.2					
O=NN(CCCl)C(=O)N(CC1CCCO1)[C@H]1[C@H](OC2CCCCC2)OC[C@H](O)[C@@H]1O (stereo partly drawn) [Compound 156, 3-tetrahydrofurfuryl-3-(cyclohexyl α-L-arabinopyranose-2-yl)-1-(2-chloroethyl)-1-nitrosourea]	150 mg/kg	2.45 mg/kg	6/6	> 700%	61.2	480 mg/kg	180 mg/kg	9.78 mg/kg	4/6	> 460%	18.4					
COCCCO[C@H]1O[C@H](CN(C(=O)N(CCCl)N=O)C2CCCCC2)[C@@H](O)[C@H](O)[C@H]1O [Compound 174, 3-cyclohexyl-3-(3-methoxy-n-propyl α-D-glucopyranose-6-yl)-1-(2-chloroethyl)-1-nitrosourea]	180 mg/kg	2.78 mg/kg	6/6	> 700%	64.8	610 mg/kg	230 mg/kg	9.66 mg/kg	5/6	> 620%	23.8					
COCC(C)N(C(=O)N(CCCl)N=O)[C@H]1[C@@H](O)[C@@H](CO)O[C@H](OCC(C)C)[C@@H]1O (stereo partly drawn) [Compound 126, 3-(1-methyl-2-methoxyethyl)-3-(isobutyl α-D-galactopyranose-3-yl)-1-(2-chloroethyl)-1-nitrosourea]	250 mg/kg	6.22 mg/kg	3/6	> 355%	40.2	785 mg/kg	240 mg/kg	15.4 mg/kg	3/6	> 350%	15.6					
CC(C)CN(C[C@H]1O[C@@H](OC2CCCCC2)[C@@H](O)[C@@H]1O)C(=O)N(CCCl)N=O [Compound 161, 3-isobutyl-3-(cyclohexyl β-D-arabinofuranose-5-yl)-1-(2-chloroethyl)-1-nitrosourea]	150 mg/kg	3.18 mg/kg	4/6	> 440%	47.2	460 mg/kg	180 mg/kg	12.7 mg/kg	3/6	> 350%	14.2					
CCOCCO[C@H]1O[C@H](CN(C(=O)N(CCCl)N=O)C(C)C)[C@H](O)[C@H](O)[C@H]1O [Compound 113, 3-isopropyl-3-(2-ethoxyethyl α-D-galactopyranose-6-yl)-1-(2-chloroethyl)-1-nitrosourea]	150 mg/kg	2.23 mg/kg	6/6	> 700%	67.3	450 mg/kg	180 mg/kg	7.32 mg/kg	6/6	> 700%	24.6					
COC(C)CN(C(=O)N(CCCl)N=O)[C@H]1CO[C@@H](OCC(C)C)[C@H](O)[C@H]1O (stereo partly drawn) [Compound 153, 3-(2-methoxy-n-propyl)-3-(isobutyl α-L-arabinopyranose-4-yl)-1-(2-chloroethyl)-1-nitrosourea]	150 mg/kg	2.57 mg/kg	5/6	> 625%	58.4	480 mg/kg	180 mg/kg	10.8 mg/kg	4/6	> 425%	16.7					
COCCCO[C@@H]1O[C@H](CN(CC(C)C)C(=O)N(CCCl)N=O)[C@@H](O)[C@H]1O [Compound 167, 3-isobutyl-3-(3-methoxy-n-propyl β-D-ribofuranose-5-yl)-1-(2-chloroethyl)-1-nitrosourea]	160 mg/kg	3.17 mg/kg	4/6	> 430%	50.5	510 mg/kg	180 mg/kg	12 mg/kg	4/6	> 450%	15.0					
